For 9 compounds, IC50 results are on record in ChEMBL document CHEMBL4350997, “The synthesis and anticancer activity of 2-styrylquinoline derivatives. A p53 independent mechanism of action” (Eur J Med Chem, 2019).

pIC50: −log10 of the molar value. ≈ marks a conversion by molar mass, not a printed value.

The subject of test [1] is HCT-116. Put plainly: Cytotoxicity against human HCT116 cells expressing wild type p53 incubated for 72 hrs by MTS assay. As to conditions: HCT-116, 72 h.
The subject of test [2] is HCT-116. Put plainly: Cytotoxicity against human HCT116 cells deficient in p53 incubated for 72 hrs by MTS assay. The note with it: HCT-116, 72 h. A general note: Tetrazolium assays rely on reduction of a dye to a coloured formazan, in cell work by metabolically active cells.
For test [3], the system named is NHDF. Put plainly: Cytotoxicity against human NHDF cells incubated for 72 hrs by MTS assay. Type of test: cell-based.
Test [4] concerns PANC-1. Put plainly: Cytotoxicity against human PANC1 cells harboring mutant TP53 gene incubated for 72 hrs by MTS assay. The test is classed as functional, cell-based. The note with it: PANC-1, 72 h.
Test [5] relates to U-251. As to the kind of experiment: Cytotoxicity against human U251 cells harboring mutant TP53 gene incubated for 72 hrs by MTS assay. The test is classed as functional, cell-based. As to conditions: U-251, 72 h.
For test [6], the system named is HCT-116. Put plainly: Anticancer activity against human HCT116 cells deficient in p53 assessed as inhibition of cell proliferation. The test is classed as functional, cell-based.
The subject of test [7] is HCT-116. As to the kind of experiment: Anticancer activity against human HCT116 cells assessed as inhibition of cell proliferation.
The test system of test [8] is HepG2. Put plainly: Anticancer activity against human HepG2 cells assessed as inhibition of cell proliferation. The test is classed as functional, cell-based.
The subject of test [9] is MCF7. As to the kind of experiment: Anticancer activity against human MCF7 cells assessed as inhibition of cell proliferation. Type of test: functional, cell-based.
Test [10] relates to ASPC1. Put plainly: Cytotoxicity against human AsPC1 cells deficit of P53 gene incubated for 72 hrs by MTS assay. As to conditions: ASPC1, 72 h. The test is classed as functional, cell-based.

Broadly, the pIC50 is the IC50 on a negative log10 scale, so that one unit is a factor of ten. Regarding `Oc1cccc2ccc(/C=C/c3c(F)cccc3Cl)nc12`, the pIC50 in test [1] and in test [2] was under 4.60 throughout.
As for `COc1ccc(/C=C/c2nc(NCCCN(C)C)c3ccccc3n2)cc1`, the pIC50 in [1] was 4.73; in test [2], 4.58; in [3], 4.91; in [4] (read-out: IC50), under 4.60; in test [5], 4.73.
As for `Oc1cccc2ccc(/C=C/c3ccccc3F)nc12`, the pIC50 in [6] is 5.08.
For `CC(=O)Oc1ccccc1/C=C/c1ccc2cccc(O)c2n1`, the negative logarithm of the IC50 (pIC50) in test [1] is 5.14; in [2], 4.87; in test [3], 5.16; in test [7], 5.14.
What is called IC50 is the concentration that inhibits the measured activity by half. In the case of `CN(C)c1ccc(/C=C/c2cc(-c3nnc(N)s3)c3cc(Br)ccc3n2)cc1`, in test [8], the IC50 was 9 µg/mL (≈ 19.9 µM).
On to `COc1cccc2c(Nc3ccc(/C(C)=N/O)cc3)cc(/C=C/c3ccccc3)nc12`, for which the IC50 in test [9] was over 4 µg/mL.
In the case of `Oc1ccc(/C=C/c2ccc3cccc(O)c3n2)cc1`, the figures for the pIC50 in test [1], in test [2] and in test [3] were 4.87, 4.78 and under 4.60, respectively.
With `COc1cccc2c1C(=O)c1c(O)c3c(c(O)c1C2=O)C[C@@](O)(C(=O)CO)C[C@@H]3O[C@H]1C[C@H](N)[C@H](O)[C@H](C)O1` [DOXORUBICIN], the pIC50 is 6.47 in test [1]; 6.42 in test [2]; 6.85 in test [3]; 6.14 in test [4]; 6.07 in test [10]; 7.30 in test [5].
With `O=c1[nH]cc(F)c(=O)[nH]1` [FLUOROURACIL], the results for the pIC50 in test [1], in test [2] and in test [3] were 5.35, 5.33 and under 4.60, respectively.
